This is an account of results in patent US12421249B2, “Inhibitors of APOL1 and methods of using same” (Vertex Pharmaceuticals Incorporated, priority 2020, dated 2025).

One may read the IC90 as the concentration needed for an effect of 90%. Higher therefore signals weaker potency.

pIC50: −log10 of the molar value. Like-named read-outs stand apart in the source and are kept apart here.

In one assay the target is T1, APOL1 G1 (Homo sapiens, UniProt O14791, I384M/S342G).
T1 sequence (O14791 28-398 S342G/I384M): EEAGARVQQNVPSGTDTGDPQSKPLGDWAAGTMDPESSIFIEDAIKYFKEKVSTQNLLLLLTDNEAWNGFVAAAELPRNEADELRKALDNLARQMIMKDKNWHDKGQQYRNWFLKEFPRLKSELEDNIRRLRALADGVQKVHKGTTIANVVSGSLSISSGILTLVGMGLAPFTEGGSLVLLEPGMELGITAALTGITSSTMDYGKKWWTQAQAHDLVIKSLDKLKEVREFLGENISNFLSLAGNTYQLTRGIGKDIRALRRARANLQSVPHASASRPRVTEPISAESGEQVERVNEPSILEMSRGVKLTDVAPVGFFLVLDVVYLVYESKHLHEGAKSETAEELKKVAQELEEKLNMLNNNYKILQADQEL
Put plainly: Trypanosoma brucei brucei Lysis Assay Using APOL1 Recombinant Protein (AlamarBlue viability readout). Particulars: for pIC50: IP50 = IC50 for cell proliferation, read-out: Trypanosome Assay IP50; for Emax: read-out: Trypanosome Assay Max Activity (%). Type of assay: cell-based. Put shortly: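 Percent viability comes from AlamarBlue (resazurin→resorufin) fluorescence interpolated on a standard curve of known parasite numbers, with no-APOL1 wells as 100%. Parasites (Lister 427 bloodstream form, 120,000/well, serum-free assay medium) meet 0.05 μg/mL APOL1 (~EC90). Compounds span a 10-point series, 0.1% DMSO final.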

A further assay concerns the target T2, APOL1 (Homo sapiens, UniProt O14791).
T2 sequence (O14791 1-398 S342G/I384M): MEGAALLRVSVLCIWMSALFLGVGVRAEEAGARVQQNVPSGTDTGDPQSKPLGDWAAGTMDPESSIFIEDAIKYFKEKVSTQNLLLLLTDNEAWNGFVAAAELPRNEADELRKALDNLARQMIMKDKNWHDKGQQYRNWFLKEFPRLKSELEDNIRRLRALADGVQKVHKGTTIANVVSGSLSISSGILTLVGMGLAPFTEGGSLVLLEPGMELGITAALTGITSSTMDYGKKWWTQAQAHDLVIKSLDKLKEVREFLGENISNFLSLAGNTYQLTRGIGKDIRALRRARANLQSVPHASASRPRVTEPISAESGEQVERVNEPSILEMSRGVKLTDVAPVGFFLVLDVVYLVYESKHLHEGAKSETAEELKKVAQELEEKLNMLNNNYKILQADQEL
Put plainly: Multi-Tox Assay (MultiTox-Fluor Multiplex Cytotoxicity Assay in tet-inducible APOL1 T-REx-HEK293 cells; Table 46 does not say which APOL1 variant G0/G1/G2). It counts as cell-based. The conditions noted are these: APOL1 variant not given; for pIC50: IP50 = IC50 for cell proliferation.

In the case of `C[C@H]1C[C@@]2(C[C@@H](c3cccc(S(N)(=O)=O)c3)N1)OCCc1cc(Cl)sc12` (racemic) [Compound 147], the pIC50 at APOL1 G1 (Trypanosome Assay) and on APOL1 was 6.30 to 7.30 in each case. In addition, the Emax at APOL1 G1 (Trypanosome Assay) is 93.5%.
`C[C@H]1C[C@@]2(C[C@@H](c3cccc(-c4cn[nH]c4)c3)N1)OCCc1cc(Cl)sc12` (racemic) [Compound 148]: at APOL1 G1 (Trypanosome Assay), the pIC50 was 6.30 to 7.30 and the Emax came to 92.5%. Also, at APOL1, the “Multi-Tox Assay Max Activity (%)” value is 97.0% and the pIC50 was 6.30 to 7.30.
On to `C[C@H]1C[C@@]2(C[C@@H](c3cnc4n3CCOC4)N1)OCCc1cc(Cl)sc12` (racemic) [Compound 149], for which, on APOL1 G1 (Trypanosome Assay), the pIC50 is below 6.30 and the Emax stood at 95%. Further, the pIC50 on APOL1 is 6.30 to 7.30.
Consider `Cc1nc([C@@H]2C[C@]3(C[C@H](C)N2)OCCc2cc(Cl)sc23)[nH]c1C` (racemic) [Compound 150], for which, at APOL1 G1 (Trypanosome Assay), the pIC50 is below 6.30 and the Emax was 87%. On APOL1, the “Multi-Tox Assay Max Activity (%)” value was 96.3% and the pIC50 was 6.30 to 7.30.
In the case of `C[C@H]1C[C@@]2(C[C@@H](c3cccc(=O)[nH]3)N1)OCCc1cc(Cl)sc12` (racemic) [Compound 151], on APOL1 G1 (Trypanosome Assay), the pIC50 was below 6.30 and the Emax is 85.7%. The molecule further showed a pIC50 against APOL1 of 6.30 to 7.30.
As to `C[C@H]1C[C@@]2(C[C@@H](c3ccnn3C)N1)OCCc1cc(Cl)sc12` (racemic) [Compound 152], at APOL1 G1 (Trypanosome Assay), the pIC50 is below 6.30 and the Emax was determined as 92.7%. In addition, on APOL1, the “Multi-Tox Assay Max Activity (%)” value is reported as 98.0% and the pIC50 is 6.30 to 7.30.
In the same order, the values of `CCc1c[nH]c([C@@H]2C[C@]3(C[C@H](C)N2)OCCc2cc(Cl)sc23)n1` (racemic) [Compound 153] are below 6.30, 89.5%, 96.0% and 6.30 to 7.30.
Consider `COc1nn(C)cc1[C@@H]1C[C@]2(C[C@H](C)N1)OCCc1cc(Cl)sc12` (racemic) [Compound 154], for which, at APOL1 G1 (Trypanosome Assay), the pIC50 is below 6.30 and the Emax worked out at 96.5%. Besides, the pIC50 against APOL1 was below 6.30.
As to `Cc1coc([C@@H]2C[C@]3(C[C@H](C)N2)OCCc2cc(Cl)sc23)n1` (racemic) [Compound 155], on APOL1 G1 (Trypanosome Assay), the pIC50 was below 6.30 and the Emax came to 97%. In addition, on APOL1, the pIC50 is 6.30 to 7.30.
`Cc1nc([C@@H]2C[C@]3(C[C@H](C)N2)OCCc2cc(Cl)sc23)c[nH]1` (racemic) [Compound 156]: at APOL1 G1 (Trypanosome Assay), the pIC50 is below 6.30 and the Emax turned out to be 85%. Moreover, on APOL1, the pIC50 was below 6.30.
Turning to `Cc1ncoc1[C@@H]1C[C@]2(C[C@H](C)N1)OCCc1cc(Cl)sc12` (racemic) [Compound 157], on APOL1 G1 (Trypanosome Assay), the pIC50 is below 6.30 and the Emax amounted to 95%. On APOL1, the “Multi-Tox Assay Max Activity (%)” value is given as 96.3% and the pIC50 is 6.30 to 7.30.
Take `Cc1nn(CCO)cc1[C@@H]1C[C@]2(C[C@H](C)N1)OCCc1cc(Cl)sc12` (racemic) [Compound 158]: the pIC50 on APOL1 G1 (Trypanosome Assay) and against APOL1 was below 6.30 each time. Besides, the Emax on APOL1 G1 (Trypanosome Assay) was found to be 75.5%.
On to `Cc1nc([C@@H]2C[C@]3(C[C@H](C)N2)OCCc2cc(Cl)sc23)cn1C` (racemic) [Compound 159], for which the pIC50 on APOL1 G1 (Trypanosome Assay) and on APOL1 was below 6.30 each time. Also, the Emax on APOL1 G1 (Trypanosome Assay) was determined as 63.5%.
On to `C[C@H]1C[C@@]2(C[C@@H](c3cnccc3O)N1)OCCc1cc(Cl)sc12` (racemic) [Compound 160], for which, at APOL1 G1 (Trypanosome Assay), the pIC50 is below 6.30 and the Emax stood at 97.5%. Moreover, the pIC50 against APOL1 is below 6.30.
Turning to `Cc1nc[nH]c1[C@@H]1C[C@]2(C[C@H](C)N1)OCCc1cc(Cl)sc12` (racemic) [Compound 161], the pIC50 on APOL1 G1 (Trypanosome Assay) and against APOL1 was below 6.30 in each case. Besides, the Emax on APOL1 G1 (Trypanosome Assay) turned out to be 73%.
`CC(C)c1c[nH]c([C@@H]2C[C@]3(C[C@H](C)N2)OCCc2cc(Cl)sc23)n1` (racemic) [Compound 162]: the pIC50 on APOL1 G1 (Trypanosome Assay) and on APOL1 was below 6.30 throughout. Also, the Emax on APOL1 G1 (Trypanosome Assay) stood at 81%.
Regarding `C[C@H]1C[C@@]2(C[C@@H](c3cnn4c3OCCC4)N1)OCCc1cc(Cl)sc12` (racemic) [Compound 163], at APOL1 G1 (Trypanosome Assay), the pIC50 was below 6.30 and the Emax amounted to 79.5%. The pIC50 against APOL1 is below 6.30.
For the molecule `Cc1nccnc1[C@@H]1C[C@]2(C[C@H](C)N1)OCCc1cc(Cl)sc12` (racemic) [Compound 164], the pIC50 at APOL1 G1 (Trypanosome Assay) and at APOL1 was below 6.30 in each case. At APOL1 G1 (Trypanosome Assay), the Emax is 85%.
Consider `C[C@H]1C[C@@]2(C[C@@H](c3ncc(C(F)(F)F)[nH]3)N1)OCCc1cc(Cl)sc12` (racemic) [Compound 165], for which, on APOL1 G1 (Trypanosome Assay), the pIC50 is below 6.30 and the Emax is 61%. Further, on APOL1, the “Multi-Tox Assay Max Activity (%)” value was 92.0% and the pIC50 was below 6.30.
As to `COc1cccc([C@@H]2C[C@]3(C[C@H](C)N2)OCCc2cc(Cl)sc23)c1O` (racemic) [Compound 166], on APOL1 G1 (Trypanosome Assay), the pIC50 is below 6.30 and the Emax came to 57.5%. Further, on APOL1, the pIC50 was below 6.30.
For the molecule `Cc1cccnc1[C@@H]1C[C@]2(C[C@H](C)N1)OCCc1cc(Cl)sc12` (racemic) [Compound 167], the pIC50 at APOL1 G1 (Trypanosome Assay) and at APOL1 was below 6.30 in each case. Moreover, at APOL1 G1 (Trypanosome Assay), the Emax stood at 73%.
For `C[C@H]1C[C@@]2(C[C@@H](c3cccc4cn[nH]c34)N1)OCCc1cc(Cl)sc12` (racemic) [Compound 168], the pIC50 on APOL1 G1 (Trypanosome Assay) and against APOL1 was below 6.30 in each case. Besides, the Emax on APOL1 G1 (Trypanosome Assay) worked out at 54.5%.
As to `C[C@H]1C[C@@]2(C[C@@H](c3n[nH]c4ccccc34)N1)OCCc1cc(Cl)sc12` (racemic) [Compound 169], at APOL1 G1 (Trypanosome Assay), the pIC50 was below 6.30 and the Emax stood at 61%. Moreover, the pIC50 at APOL1 was below 6.30.
Consider `Cc1nc2c([C@@H]3C[C@]4(C[C@H](C)N3)OCCc3cc(Cl)sc34)cccc2o1` (racemic) [Compound 170], for which, at APOL1 G1 (Trypanosome Assay), the pIC50 was below 6.30 and the Emax amounted to 71.5%. At APOL1, the “Multi-Tox Assay Max Activity (%)” value amounted to 89.7% and the pIC50 was below 6.30.
As for `C[C@H]1C[C@@]2(C[C@@H](c3ncnn3C)N1)OCCc1cc(Cl)sc12` (racemic) [Compound 171], the pIC50 at APOL1 G1 (Trypanosome Assay) and on APOL1 was below 6.30 throughout. For the same molecule, at APOL1 G1 (Trypanosome Assay), the Emax was determined as 14%.
With `C[C@H]1C[C@@]2(C[C@@H](c3ncccc3O)N1)OCCc1cc(Cl)sc12` (racemic) [Compound 172], on APOL1 G1 (Trypanosome Assay), the pIC50 is below 6.30 and the Emax is 64.5%. This molecule gave a pIC50 against APOL1 below 6.30.
In the case of `C[C@@H]1C[C@]2(C[C@H](C)N1)OCC(O)c1cc(Cl)sc12` (mixture of isomers) [Compound 205, (2R,6S)-2-chloro-2′,6′-dimethyl-spiro[4,5-dihydrothieno[2,3-c]pyran-7,4′-piperidine]-4-ol], the results for the pIC50 on APOL1 G1 (Trypanosome Assay) and at APOL1 were 6.30 to 7.30 and above 7.30, respectively. For the same molecule, on APOL1 G1, the Emax amounted to 106%.
Turning to `C[C@@H]1CC2(C[C@@H](c3cn(C)nn3)N1)OCCc1cc(Cl)sc12` (single isomer, unassigned) [Compound 7], at APOL1 G1 (Trypanosome Assay), the pIC50 was below 6.30 and the Emax is 92%. On APOL1, this molecule had an IC90 of 50 to 500 nM and a pIC50 of 6.30 to 7.30.
In the case of `C[C@H]1CC2(C[C@@H](c3cn(C)nn3)N1)OCCc1sc(Cl)cc12` (single isomer, unassigned) [Compound 173], at APOL1 G1 (Trypanosome Assay), the pIC50 is above 7.30 and the Emax came out at 116%. At APOL1, this molecule showed a pIC50 above 7.30.
